Laboratory results taken from article PMC6784148 (Toxins, 2019).
Read-outs that look alike come from different tables or passages of the source.

Key:
[1] = system: intestinal porcine epithelial cell line (IPEC-J2); experiment: cells; conditions: Sus scrofa, IPEC-J2, 48 h
[2] = system: intestinal porcine epithelial cell line (IPEC-J2)
[3] = pigs; cited from earlier work
Caco-2 cells = system: Caco-2 cells; set-up: method as in doi:10.3920/WMJ2014.1861; conditions: 780 µM, 48 h of incubation; cited from earlier work
THP-1 monocytes = system: THP-1 monocytes; set-up: method as in doi:10.3920/WMJ2014.1861; conditions: cited from earlier work
in vitro = conditions: pig
rats = system: rats; set-up: method as in PMID 9872769; conditions: at levels of 0.05 and 0.1%; cited from earlier work
HepG2 cells = conditions: up until a concentration of 100 µM; cited from earlier work
HT29 cells = system: HT29 cells; set-up: method as in PMID 29248571; conditions: after 48 h; cited from earlier work
HCEC-1CT cells = system: HCEC-1CT cells; set-up: method as in PMID 29248571; conditions: after 48 h; cited from earlier work
[4] = system: glucuronidation of DON in human liver microsomes; set-up: method as in PMID 31049613, PMID 29465119; conditions: cited from earlier work
[5] = system: three different cancer cell lines; set-up: method as in PMID 1172201; conditions: cited from earlier work
[6] = set-up: method as in PMID 24239892, PMID 22008903; conditions: cited from earlier work

Row | Compound | IC50 ([1]; read-out: Relative IC50 value) [µM] | Absolute IC50 value [2] [µg/kg] | Relative IC50 value [2] [µg/kg] | Negative effects on IPEC-J2 in the tested concentration range [2] | further results
1 | Cc1cc(O)c2c(c1)C(=O)c1cc(O)cc(O)c1C2=O [Emodin] | 13.1 | 5056 | 3537 |  | IC50 ([1]; read-out: Absolute IC50 value): 18.7 µM; Viability after applying higher concentrations [2]: did not further decrease below 50%; Viability at concentrations >50 µM [2]: did not further decrease
2 | Enniatin A1 |  | 2772 | 2151 |  | IC50 ([2]; read-out: Absolute IC50 value): 4.15 µM; IC50 ([2]; read-out: Relative IC50 value): 3.22 µM
3 | C=CC(C)(C)[C@@]12C[C@H]3C(=O)N/C(=C/c4c[nH]cn4)C(=O)N3[C@@H]1Nc1ccccc12 [roquefortine C] |  |  |  | None | 
4 | Enniatin A |  | 2319 | 1964 |  | IC50 ([2]; read-out: Absolute IC50 value): 3.4 µM; IC50 ([2]; read-out: Relative IC50 value): 2.88 µM
5 | OCCc1c[nH]c2ccccc12 [tryptophol] |  |  |  | None | 
6 | CN1C(=O)[C@]23CC4=CC=C[C@H](O)[C@H]4N2C(=O)[C@@]1(CO)SS3 [Gliotoxin] | 0.63 | 209 | 206 |  | IC50 ([1]; read-out: Absolute IC50 value): 0.64 µM
7 | CC1=C[C@H]2O[C@@H]3[C@H](O)C[C@](C)([C@@]2(CO)[C@H](O)C1=O)[C@]31CO1 [Deoxynivalenol, reference compound] |  | 756 | 557 |  | IC50 ([2]; read-out: Absolute IC50 value): 2.55 µM; IC50 ([2]; read-out: Relative IC50 value): 1.88 µM; Bioavailability after oral administration [3]: 98.6% ± 23.6%
8 | COc1c(C)c2c(c(O)c1C/C=C(\C)CCC(=O)O)C(=O)OC2 [Mycophenolic Acid, Mycophenolic acid] | 0.543 |  | 170 |  | Decrease of mitochondrial activity (Caco-2 cells): 45%; Effect in THP-1 monocytes (THP-1 monocytes): no effect; Abrupt decreased viability [2]: 26.1% ± 12.1%; Cytotoxic effect on IPEC-J2 (in words) [2]: slight decrease in viability; Viability at concentrations from 2.5 to 150 µM [2]: no further loss in viability; IC50 ([2]; read-out: Relative IC50 value): 0.53 µM; viability (in vitro): ≥ 66%
9 | Beauvericin |  | 1905 | 1756 |  | IC50 ([2]; read-out: Absolute IC50 value): 2.43 µM; IC50 ([2]; read-out: Relative IC50 value): 2.24 µM
10 | CC(C)[C@@H]1NC(=O)[C@@H]2CCCN2C1=O [cyclo-(L-Pro-L-Val)] |  |  |  | None | 
11 | CC(C)C[C@@H]1NC(=O)[C@H](C)N(C)C(=O)CNC(=O)/C(=C/c2ccccc2)N(C)C1=O [tentoxin] |  |  |  | None | 
12 | O=C1N[C@@H](Cc2ccc(O)cc2)C(=O)N2CCC[C@@H]12 [cyclo-(L-Pro-L-Tyr)] |  |  |  | None | Cytotoxic effect on IPEC-J2 (in words) [2]: non-cytotoxic
13 | O=C1N[C@@H](Cc2c[nH]c3ccccc23)C(=O)N2CCC[C@@H]12 [brevianamid F] |  |  |  | None | 
14 | O=C(O)CC[N+](=O)[O-] [3-nitropropionic acid] |  |  |  | None | 
15 | C/C=C/[C@@H]1C=C[C@@H]2C[C@H](C)CC[C@H]2[C@]1(C)/C(O)=C1/C(=O)[C@H](CO)N(C)C1=O [Equisetin] |  |  | 4120 |  | Cytotoxic effect on IPEC-J2 (in words) [2]: slight decrease in viability; Cell viability ([2]; 20 µM): 64.0% (±7.6%); IC50 ([2]; read-out: Relative IC50 value): 11 µM
16 | CCC(=O)CCCCC[C@@H]1NC(=O)[C@H]2CCCCN2C(=O)[C@H]([C@@H](C)CC)NC(=O)[C@H](Cc2cn(OC)c3ccccc23)NC1=O [Apicidin] | 0.49 | 324 | 306 |  | Toxic effects in rats (rats): leading to death; IC50 ([1]; read-out: Absolute IC50 value): 0.52 µM
17 | Cc1cc(O)cc2oc(=O)c3c(O)cc(O)cc3c12 [Alternariol] | 20.3 |  | 5232 |  | Cell viability of HepG2 cells (HepG2 cells): did not decrease in a concentration-dependent manner; Cytotoxic effect on IPEC-J2 (in words) [2]: slight decrease in viability; viability (in vitro): ~50%; viability at 20 µM (in vitro): 76.3%
18 | O=c1cc(CO)occ1O [kojic acid] |  |  |  | None | 
19 | COC1=C(C2=C(OC)C(=O)c3cc4oc(C)cc(=O)c4c(O)c3C2=O)C(=O)c2c(cc3oc(C)cc(=O)c3c2O)C1=O [Aurofusarin] |  | 6766 | 5329 |  | Concentration at which a significant decrease in viability starts (HT29 cells): 5 µM; IC50 ([2]; read-out: Absolute IC50 value): 11.9 µM; IC50 ([2]; read-out: Relative IC50 value): 9.34 µM; Concentration at which a significant decrease in viability starts (HCEC-1CT cells): 5 µM
20 | O=C1C=C2C(=CCOC2O)O1 (stereo not shown) [Patulin] | 3.18 | 495 | 490 |  | IC50 ([1]; read-out: Absolute IC50 value): 3.21 µM
21 | COc1cc(O)c2c(O)c3c(=O)cc(C)oc3cc2c1 [Rubrofusarin] | 21.5 |  | 5865 |  | Cytotoxic effect on IPEC-J2 (in words) [2]: slight decrease in viability; viability at 50 µM (in vitro): 64 ± 8.7%
22 | CC(C)[C@H]1C(=O)O[C@H](C(C)C)C(=O)N(C)[C@@H](C(C)C)C(=O)O[C@H](C(C)C)C(=O)N(C)[C@@H](C(C)C)C(=O)O[C@H](C(C)C)C(=O)N1C [Enniatin B] | 3.49 | 2079 | 2233 |  | IC50 ([1]; read-out: Absolute IC50 value): 3.25 µM; Viability after applying higher concentrations [2]: did not further decrease below 50%
23 | CC1(C)CCC[C@]2(C)[C@@H]3[C@H]1[C@@H](O)[C@@]2(C)C[C@H]3O [culmorin] |  |  |  | None | Cytotoxic effect on IPEC-J2 (in words) [2]: no cytotoxic effect; Effect on glucuronidation of DON [4]: able to inhibit the glucuronidation of DON
24 | COC1=CC(=O)c2c(c(O)c3oc4cc(OC)cc(C)c4c(=O)c3c2O)C1=O [Bikaverin] | 0.75 | 711 | 287 |  | IC50 ([1]; read-out: Absolute IC50 value): 1.86 µM; ED50 (cytotoxicity) [5]: 0.5 to 4.2 µg/mL; ED50 (cytotoxicity) ([5]; µg/mL values expressed in µM): 1.31 to 10.99 µM; Viability after applying higher concentrations [2]: did not further decrease below 50%
25 | CCCCc1ccc(C(=O)O)nc1 [fusaric acid] |  |  |  | None | 
26 | CC[C@H](C)[C@H]1C(=O)O[C@H](C(C)C)C(=O)N(C)[C@@H](C(C)C)C(=O)O[C@H](C(C)C)C(=O)N(C)[C@@H](C(C)C)C(=O)O[C@H](C(C)C)C(=O)N1C [Enniatin B1] | 2.69 | 2400 | 1759 |  | IC50 ([1]; read-out: Absolute IC50 value): 3.67 µM; Oral bioavailability [6]: high oral bioavailability
27 | O=c1cc(O)c1=O [moniliformin] |  |  |  | None | 
28 | COc1cc(O)c2c(=O)oc3cc(O)cc(C)c3c2c1 [alternariol monomethyl ether] |  |  |  | None | 
